Source: patent US20230114241A1, “METHODS OF TREATING EPILEPSY USING THE SAME” (Trevena, Inc., priority 2019, published 2023)

Legend:
[1] = target: T1, human sphingosine-1-phosphate receptor 1 (S1P1) (Homo sapiens, UniProt P21453); assay: Inhibition of cAMP production (HTRF cAMP HiRange), S1P1 CHO-K1 cells; type: cell-based; details: inhibition of cAMP production; for Emax: CHO-K1, efficacy normalized to maximum efficacy of fingolimod, read-out: hS1P1 CAMP SPAN; for EC50: potency, read-out: hS1P1 CAMP pEC50 (converted)
Summary of the method: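 Intracellular cAMP changes read by TR-FRET (HTRF HiRange, 1 h room temperature) after 30 min compound exposure at 37 °C. Cells: overnight-plated CHO-K1 stably expressing tagged human S1P1 with EA-β-arrestin2. Responses normalized to fingolimod.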
Target sequence in this assay (P21453 whole entry): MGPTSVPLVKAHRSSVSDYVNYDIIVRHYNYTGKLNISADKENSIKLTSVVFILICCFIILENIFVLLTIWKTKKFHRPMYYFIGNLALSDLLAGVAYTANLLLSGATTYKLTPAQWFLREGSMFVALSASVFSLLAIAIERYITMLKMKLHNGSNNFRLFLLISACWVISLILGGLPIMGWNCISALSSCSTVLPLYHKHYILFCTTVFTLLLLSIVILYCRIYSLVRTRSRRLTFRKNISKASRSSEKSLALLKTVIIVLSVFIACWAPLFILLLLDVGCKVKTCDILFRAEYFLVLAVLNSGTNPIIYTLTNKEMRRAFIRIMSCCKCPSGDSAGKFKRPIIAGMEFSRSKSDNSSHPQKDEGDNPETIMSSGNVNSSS

[2] = target: T1, human sphingosine-1-phosphate receptor 1 (S1P1); assay: β-Arrestin2 recruitment assay (PathHunter), S1P1 CHO-K1 cells; type: cell-based; details: for Emax: CHO-K1, β-arrestin2 recruitment, efficacy normalized to maximum efficacy of fingolimod, read-out: hS1P1 B-arrestin2 SPAN; for EC50: β-arrestin2 recruitment, potency, read-out: hS1P1 B-arrestin2 pEC50 (converted)
Description: Stable clonal Chinese hamster ovary K1 (CHO-K1) cells co-expressing EA-β-arrestin2 and the human sphingosine-1-phosphate receptor 1 (NM_001400, S1P1) with a C-terminal Prolink™ tag were purchased from DiscoverX corporation (Cat #: 93-0207C2).
Cell lines were cultured in AssayComplete™ Media 6 (DiscoverX Corporation, Cat #: 920018GF2) at 37° C. and 5% CO2 in a humidified CO2 and temperature-controlled incubator. To begin assay plating, cells were washed with Dulbecco's phosphate buffered saline (CellGro, Cat #: 21-031-CV) and lifted from the culturing flask by incubation (37° C., 5 min) with CellStripper (Cellgro, Cat #: 25-056-CI). […] Plated cells were incubated overnight at 37° C. and 5% CO2 in a humidified CO2 and temperature-controlled incubator.
Agonist-promoted β-arrestin2 recruitment to the sphingosine-1-phosphate 1 receptor was determined using the β-arrestin PathHunter® Detection kit (DiscoverX Corporation, Cat #: 93-0001). […] In cells that stably express these fusion proteins, stimulation with a cognate agonist results in the interaction of β-arrestin2 and the Prolink™-tagged GPCR. This allows the complementation of the two β-galactosidase fragments and results in the formation of a functional enzyme with β-galactosidase activity. […] Following a 60 minute incubation at 37° C. and 5% CO2 in a humidified CO2 and temperature-controlled incubator, the components of the β-arrestin PathHunter® Detection kit were added as per the manufacturer's instructions. After an hour incubation at room temperature, plates were analyzed by a BMG PheraStar microplate reader.
These values are normalized to fingolimod, a known agonist of the sphingosine-1-phosphate 1 receptor.
Target sequence in this assay (P21453 whole entry): as above
Target sequence in this assay (P32121 whole entry partner): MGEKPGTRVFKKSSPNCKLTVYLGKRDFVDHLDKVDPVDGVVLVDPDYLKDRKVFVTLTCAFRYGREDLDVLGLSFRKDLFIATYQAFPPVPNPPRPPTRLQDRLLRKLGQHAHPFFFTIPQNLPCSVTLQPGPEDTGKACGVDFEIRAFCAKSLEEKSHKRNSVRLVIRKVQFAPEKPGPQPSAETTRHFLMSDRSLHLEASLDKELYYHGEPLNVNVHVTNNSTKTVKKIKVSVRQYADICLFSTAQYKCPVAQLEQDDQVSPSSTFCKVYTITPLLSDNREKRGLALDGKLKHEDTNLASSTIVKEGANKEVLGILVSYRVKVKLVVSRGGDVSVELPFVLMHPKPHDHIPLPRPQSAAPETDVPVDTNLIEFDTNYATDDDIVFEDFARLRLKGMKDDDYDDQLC

Compound | Emax [1] [%] | EC50 [1] [µM] | Emax [2] [%] | EC50 [2] [µM]
Brc1ccccc1-c1nc(-c2ccc3c(c2)nnn3C2CCCC2)no1 [Compound 40, 5-(2-bromophenyl)-3-(1-cyclopentyl-1H-benzo[d][1,2,3]triazol-5-yl)-1,2,4-oxadiazole] | > 75 | < 0.316 | > 75 | < 10
C=CCn1nnc2cc(-c3noc(-c4ccccc4Br)n3)ccc21 [Compound 42, 3-(1-allyl-1H-benzo[d][1,2,3]triazol-5-yl)-5-(2-bromo-phenyl)-1,2,4-oxadiazole] | > 75 | > 0.316 | > 75 | > 10
CC(C)n1nnc2cc(-c3noc(-c4ccccc4Br)n3)ccc21 [Compound 43, 5-(2-bromophenyl)-3-(1-isopropyl-1H-benzo[d][1,2,3]triazol-5-yl)-1,2,4-oxadiazole] | > 75 | < 0.316 | > 75 | < 10
Brc1ccccc1-c1nc(-c2ccc3c(c2)nnn3Cc2ccncc2)no1 [Compound 48, 5-(2-bromophenyl)-3-(1-(pyridin-4-ylmethyl)-1H-benzo[d][1,2,3]triazol-5-yl)-1,2,4-oxadiazole] | < 75 | > 0.316 | < 75 | > 10
COc1cnc(-c2nc(-c3ccc4c(c3)nnn4C(C)C)no2)cn1 [Compound 51, 3-(1-isopropyl-1H-benzo[d][1,2,3]triazol-5-yl)-5-(5-methoxypyrazin-2-yl)-1,2,4-oxadiazole] | < 75 | > 0.316 | < 75 | > 10
CCCn1nnc2cc(-c3nc(-c4cccc(C)c4)no3)ccc21 [Compound 54, 5-[3-(3-methylphenyl)-1,2,4-oxadiazol-5-yl]-1-propyl-1H-1,2,3-benzotriazole] | < 75 | > 0.316 | > 75 | > 10

Other lines, results leading:

Emax [1] [%] | EC50 [1] [µM] | Emax [2] [%] | EC50 [2] [µM] | Compound
< 75 | > 0.316 | < 75 | > 10 | C=CCn1nc2ccc(-c3nc(-c4ccccc4)no3)cc2n1 [Compound 39, 5-(3-phenyl-1,2,4-oxadiazol-5-yl)-2-(prop-2-en-1-yl)-2H-1,2,3-benzotriazole]
< 75 | > 0.316 | < 75 | > 10 | Cc1nccnc1-c1nc(-c2ccc3c(c2)nnn3C(C)C)no1 [Compound 44, 3-(1-isopropyl-1H-benzo[d][1,2,3]triazol-5-yl)-5-(3-methylpyrazin-2-yl)-1,2,4-oxadiazole]
< 75 | > 0.316 | < 75 | > 10 | Brc1ccccc1-c1nc(-c2ccc3c(c2)nnn3Cc2ccccn2)no1 [Compound 45, 5-(2-bromophenyl)-3-(1-(pyridin-2-ylmethyl)-1H-benzo[d][1,2,3]triazol-5-yl)-1,2,4-oxadiazole]
> 75 | < 0.316 | > 75 | < 10 | Cc1ccsc1-c1noc(-c2ccc3c(c2)nnn3C2CCCC2)n1 [Compound 46, 1-cyclopentyl-5-[3-(3-methylthiophen-2-yl)-1,2,4-oxadiazol-5-yl]-1H-1,2,3-benzotriazole]
< 75 | > 0.316 | < 75 | > 10 | CSc1cccc(-c2nc(-c3ccc4c(c3)nnn4C3CCCC3)no2)c1 [Compound 47, 3-(1-cyclopentyl-1H-benzo[d][1,2,3]triazol-5-yl)-5-(3-(methylthio)phenyl)-1,2,4-oxadiazole]
< 75 | > 0.316 | < 75 | > 10 | CC(C)n1nnc2cc(-c3nc(-c4ccc(COc5ccccc5)cc4)no3)ccc21 [Compound 49, 5-{3-[4-(phenoxy-methyl)phenyl]-1,2,4-oxadiazol-5-yl}-1-(propan-2-yl)-1H-1,2,3-benzotriazole]
< 75 | > 0.316 | < 75 | > 10 | Brc1ccccc1-c1nc(-c2ccc3c(c2)nnn3Cc2ccccc2)no1 [Compound 52, 3-(1-benzyl-1H-benzo[d][1,2,3]triazol-5-yl)-5-(2-bromophenyl)-1,2,4-oxadiazole]
